Reference: patent US20060167057A1, “Compounds for the treatment of CNS and amyloid associated diseases” (priority 2004, published 2006)

Target: T1, L1 transport system (large neutral amino acid carrier, L1-system carrier) (Rattus norvegicus, UniProt Q63016)
T1 construct: functionality of their endogenous transporters such as the L1-system carrier; endogenous in cells; host or cells: rat primary cerebrovascular (brain microcapillary) endothelial cells, RBEC
Assay: Competitive binding assay to the brain L1 transport system (L-[U-14C]phenylalanine on rat primary cerebrovascular endothelial cells)
Conditions: 10^−4 M
In short: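 Cells were primary cerebral microvascular endothelial cells from cortices of 24-day-old rats, isolated by collagenase/DNAse digestion, dextran separation and mesh filtration.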

T1 sequence (Q63016 whole entry): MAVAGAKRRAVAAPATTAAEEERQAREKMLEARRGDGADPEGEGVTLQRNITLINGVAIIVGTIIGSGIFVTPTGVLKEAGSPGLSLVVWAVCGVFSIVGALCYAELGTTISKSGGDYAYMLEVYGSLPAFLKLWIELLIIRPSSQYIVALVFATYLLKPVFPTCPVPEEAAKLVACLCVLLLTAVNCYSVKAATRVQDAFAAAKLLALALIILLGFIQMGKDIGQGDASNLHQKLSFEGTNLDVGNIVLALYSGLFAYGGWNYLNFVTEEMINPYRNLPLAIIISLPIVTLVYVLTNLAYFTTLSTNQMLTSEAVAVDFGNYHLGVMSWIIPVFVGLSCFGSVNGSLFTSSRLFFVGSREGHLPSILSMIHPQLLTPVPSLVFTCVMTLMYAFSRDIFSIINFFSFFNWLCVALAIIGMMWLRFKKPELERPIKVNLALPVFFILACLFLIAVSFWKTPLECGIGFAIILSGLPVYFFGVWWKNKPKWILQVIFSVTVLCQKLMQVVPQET
T1 sequence (Q794F9 whole entry partner): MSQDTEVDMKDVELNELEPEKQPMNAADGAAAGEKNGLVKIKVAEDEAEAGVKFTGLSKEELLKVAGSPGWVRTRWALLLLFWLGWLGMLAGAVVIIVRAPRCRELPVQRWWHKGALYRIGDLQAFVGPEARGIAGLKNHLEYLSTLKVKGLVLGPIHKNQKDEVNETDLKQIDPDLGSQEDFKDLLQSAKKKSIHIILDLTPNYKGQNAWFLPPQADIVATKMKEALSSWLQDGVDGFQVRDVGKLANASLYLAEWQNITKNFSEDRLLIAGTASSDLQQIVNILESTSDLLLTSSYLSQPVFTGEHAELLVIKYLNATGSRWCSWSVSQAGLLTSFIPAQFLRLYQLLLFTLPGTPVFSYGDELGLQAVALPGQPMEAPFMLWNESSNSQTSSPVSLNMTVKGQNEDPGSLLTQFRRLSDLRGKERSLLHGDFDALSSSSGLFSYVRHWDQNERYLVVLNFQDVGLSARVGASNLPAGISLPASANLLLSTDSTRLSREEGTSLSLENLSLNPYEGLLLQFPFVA

SMILES	Comparison with the Binding of Phenylalanine
CN(C)CCn1nnnc1Sc1cccc(-c2cccc(CC(N)C(=O)O)c2)c1 (stereo not drawn) [Compound 103]	2 (10 < X < 20 Rank 2)
NC(Cc1cccc(CSc2nc(-c3ccccc3)c(-c3ccccc3)o2)c1)C(=O)O (stereo not drawn) [Compound 104]	2 (10 < X < 20 Rank 2)
NC(Cc1cccc(-c2cccc(N3CCN(c4ccc(F)cc4)CC3)c2)c1)C(=O)O (stereo not drawn) [Compound 105]	2 (10 < X < 20 Rank 2)
NC(Cc1cccc(-c2cccc(Sc3nc4cc([N+](=O)[O-])ccc4s3)c2)c1)C(=O)O (stereo not drawn) [Compound 109]	2 (10 < X < 20 Rank 2)
NC(Cc1cccc(CSc2nc3ccccc3c(=O)[nH]2)c1)C(=O)O (stereo not drawn) [Compound 110]	1 (0 < X < 10 Rank 1)
Cc1nnc(Sc2cccc(-c3cccc(CC(N)C(=O)O)c3)c2)s1 (stereo not drawn) [Compound 111]	2 (10 < X < 20 Rank 2)
CC(=O)c1ccc(N2CCN(Cc3cccc(CC(N)C(=O)O)c3)CC2)cc1 (stereo not drawn) [Compound 112]	2 (10 < X < 20 Rank 2)
NC(Cc1cccc(-c2cccc(N3CCN(c4ccccn4)CC3)c2)c1)C(=O)O (stereo not drawn) [Compound 113]	0 (X < 0 Rank 0)
NC(Cc1cccc(CSc2ccc3ccccc3n2)c1)C(=O)O (stereo not drawn) [Compound 114]	0 (X < 0 Rank 0)
NC(Cc1cccc(-c2cccc(N3CCc4ccccc4C3)c2)c1)C(=O)O (stereo not drawn) [Compound 115]	0 (X < 0 Rank 0)
NC(Cc1ccc(-c2ccc(CN3CCN(c4cccc(Cl)c4)CC3)cc2)cc1)C(=O)O (stereo not drawn) [Compound 116]	1 (0 < X < 10 Rank 1)
N#CC1(c2ccccc2)CCN(Cc2cccc(CC(N)C(=O)O)n2)CC1 (stereo not drawn) [Compound 117]	0 (X < 0 Rank 0)
CN(C)CCn1nnnc1SCc1ccc(-c2ccc(CC(N)C(=O)O)cc2)cc1 (stereo not drawn) [Compound 118]	3 (X > 20 Rank 3)
NC(Cc1cccc(CSc2nc(-c3ccccc3)c(-c3ccccc3)o2)n1)C(=O)O (stereo not drawn) [Compound 119]	2 (10 < X < 20 Rank 2)
NC(Cc1ccc(-c2ccc(CN3CCN(c4ccc(F)cc4)CC3)cc2)cc1)C(=O)O (stereo not drawn) [Compound 120]	0 (X < 0 Rank 0)
Cc1ccnc(SCc2cccc(CC(N)C(=O)O)n2)n1 (stereo not drawn) [Compound 121]	0 (X < 0 Rank 0)

Same assay, conditions: 10^−5 M

SMILES	Comparison with the Binding of Phenylalanine
CN(C)CCn1nnnc1Sc1cccc(-c2cccc(CC(N)C(=O)O)c2)c1 (stereo not drawn) [Compound 103]	2 (10 < X < 20 Rank 2)
NC(Cc1cccc(CSc2nc(-c3ccccc3)c(-c3ccccc3)o2)c1)C(=O)O (stereo not drawn) [Compound 104]	3 (X > 20 Rank 3)
NC(Cc1cccc(-c2cccc(N3CCN(c4ccc(F)cc4)CC3)c2)c1)C(=O)O (stereo not drawn) [Compound 105]	2 (10 < X < 20 Rank 2)
NC(Cc1cccc(-c2cccc(Sc3nc4cc([N+](=O)[O-])ccc4s3)c2)c1)C(=O)O (stereo not drawn) [Compound 109]	3 (X > 20 Rank 3)
NC(Cc1cccc(CSc2nc3ccccc3c(=O)[nH]2)c1)C(=O)O (stereo not drawn) [Compound 110]	1 (0 < X < 10 Rank 1)
Cc1nnc(Sc2cccc(-c3cccc(CC(N)C(=O)O)c3)c2)s1 (stereo not drawn) [Compound 111]	3 (X > 20 Rank 3)
CC(=O)c1ccc(N2CCN(Cc3cccc(CC(N)C(=O)O)c3)CC2)cc1 (stereo not drawn) [Compound 112]	3 (X > 20 Rank 3)
NC(Cc1cccc(-c2cccc(N3CCN(c4ccccn4)CC3)c2)c1)C(=O)O (stereo not drawn) [Compound 113]	0 (X < 0 Rank 0)
NC(Cc1cccc(CSc2ccc3ccccc3n2)c1)C(=O)O (stereo not drawn) [Compound 114]	0 (X < 0 Rank 0)
NC(Cc1cccc(-c2cccc(N3CCc4ccccc4C3)c2)c1)C(=O)O (stereo not drawn) [Compound 115]	0 (X < 0 Rank 0)
NC(Cc1ccc(-c2ccc(CN3CCN(c4cccc(Cl)c4)CC3)cc2)cc1)C(=O)O (stereo not drawn) [Compound 116]	2 (10 < X < 20 Rank 2)
N#CC1(c2ccccc2)CCN(Cc2cccc(CC(N)C(=O)O)n2)CC1 (stereo not drawn) [Compound 117]	0 (X < 0 Rank 0)
CN(C)CCn1nnnc1SCc1ccc(-c2ccc(CC(N)C(=O)O)cc2)cc1 (stereo not drawn) [Compound 118]	3 (X > 20 Rank 3)
NC(Cc1cccc(CSc2nc(-c3ccccc3)c(-c3ccccc3)o2)n1)C(=O)O (stereo not drawn) [Compound 119]	3 (X > 20 Rank 3)
NC(Cc1ccc(-c2ccc(CN3CCN(c4ccc(F)cc4)CC3)cc2)cc1)C(=O)O (stereo not drawn) [Compound 120]	1 (0 < X < 10 Rank 1)
Cc1ccnc(SCc2cccc(CC(N)C(=O)O)n2)n1 (stereo not drawn) [Compound 121]	0 (X < 0 Rank 0)

Same assay, conditions: 10^−6 M

SMILES	Comparison with the Binding of Phenylalanine
CN(C)CCn1nnnc1Sc1cccc(-c2cccc(CC(N)C(=O)O)c2)c1 (stereo not drawn) [Compound 103]	2 (10 < X < 20 Rank 2)
NC(Cc1cccc(CSc2nc(-c3ccccc3)c(-c3ccccc3)o2)c1)C(=O)O (stereo not drawn) [Compound 104]	3 (X > 20 Rank 3)
NC(Cc1cccc(-c2cccc(N3CCN(c4ccc(F)cc4)CC3)c2)c1)C(=O)O (stereo not drawn) [Compound 105]	2 (10 < X < 20 Rank 2)
NC(Cc1cccc(-c2cccc(Sc3nc4cc([N+](=O)[O-])ccc4s3)c2)c1)C(=O)O (stereo not drawn) [Compound 109]	3 (X > 20 Rank 3)
NC(Cc1cccc(CSc2nc3ccccc3c(=O)[nH]2)c1)C(=O)O (stereo not drawn) [Compound 110]	1 (0 < X < 10 Rank 1)
Cc1nnc(Sc2cccc(-c3cccc(CC(N)C(=O)O)c3)c2)s1 (stereo not drawn) [Compound 111]	3 (X > 20 Rank 3)
CC(=O)c1ccc(N2CCN(Cc3cccc(CC(N)C(=O)O)c3)CC2)cc1 (stereo not drawn) [Compound 112]	3 (X > 20 Rank 3)
NC(Cc1cccc(-c2cccc(N3CCN(c4ccccn4)CC3)c2)c1)C(=O)O (stereo not drawn) [Compound 113]	2 (10 < X < 20 Rank 2)
NC(Cc1cccc(CSc2ccc3ccccc3n2)c1)C(=O)O (stereo not drawn) [Compound 114]	2 (10 < X < 20 Rank 2)
NC(Cc1cccc(-c2cccc(N3CCc4ccccc4C3)c2)c1)C(=O)O (stereo not drawn) [Compound 115]	1 (0 < X < 10 Rank 1)
NC(Cc1ccc(-c2ccc(CN3CCN(c4cccc(Cl)c4)CC3)cc2)cc1)C(=O)O (stereo not drawn) [Compound 116]	2 (10 < X < 20 Rank 2)
N#CC1(c2ccccc2)CCN(Cc2cccc(CC(N)C(=O)O)n2)CC1 (stereo not drawn) [Compound 117]	1 (0 < X < 10 Rank 1)
CN(C)CCn1nnnc1SCc1ccc(-c2ccc(CC(N)C(=O)O)cc2)cc1 (stereo not drawn) [Compound 118]	3 (X > 20 Rank 3)
NC(Cc1cccc(CSc2nc(-c3ccccc3)c(-c3ccccc3)o2)n1)C(=O)O (stereo not drawn) [Compound 119]	1 (0 < X < 10 Rank 1)
NC(Cc1ccc(-c2ccc(CN3CCN(c4ccc(F)cc4)CC3)cc2)cc1)C(=O)O (stereo not drawn) [Compound 120]	1 (0 < X < 10 Rank 1)
Cc1ccnc(SCc2cccc(CC(N)C(=O)O)n2)n1 (stereo not drawn) [Compound 121]	1 (0 < X < 10 Rank 1)
